From patent US20240082342A1, “PEPTIDE THERAPEUTICS FOR INCREASING LUNG CELL VIABILITY” (BOARD OF REGENTS, THE UNIVERSITY OF TEXAS SYSTEM, priority 2018, published 2024)
Entries after “also recorded” stand apart in the source; their conditions may differ.

Experiments:
WT mice exposed to PTS = assay: Passive tobacco smoke (PTS) exposed WT mice treated IP with CSP or CSP7 once a week; assay type: in vivo, mouse; conditions: for p53, PAI-1 expression and apoptosis in A2Cs/A2ECs: PTS (or IL-17A) exposure; for pulmonary influx of CD4- and CD8-positive T cells, macrophages and neutrophils: PTS exposed mice
Procedure: Four weeks after initiation of PTS exposure, the WT mice were administered an intraperitoneal injection of vehicle or CSP (18.75 mg/kg body wt) or control peptide (CP) once a week for the next 4 weeks. Exposure to PTS was continued for another 12 weeks. BAL fluid and lysates (CL) from A2ECs isolated from PTS exposed WT mice treated with vehicle, CSP or CP were immunoblotted for p53 and PAI-1 and activation of caspase-3. -β-actin was tested for similar loading. […] The process involves inhibition of p53-induced PAI-1 expression.
FIGS. 57A-57C show inhibition of PTS-induced IL-17A by CSP in WT mice. Four weeks after initiation of PTS exposure as in FIG. 56, the WT mice were administered an intraperitoneal (IP) injection of vehicle or CSP (18.75 mg/kg body wt) or control peptide (CP) once a week for the next 4 weeks. Exposure to PTS was continued for another 12 weeks. Lung sections (A), lung homogenates (B) and total RNA (C) were analyzed for IL-17A and IL-17R mRNA expression by qRT-PCR.
FIGS. 60A-60B show inhibition of PTS-induced p53^AC, p53^S15 and p53, PAI-1, apoptosis and senescence by CSP7 in WT mice. Four weeks after initiation of PTS exposure as in FIG. 56, the WT mice were IP injected with vehicle or CSP7 or CP once a week for the next 4 weeks. Exposure to PTS was continued for another 12 weeks. (A) Lung sections were subjected IHC analysis for p53 and PAI-1. (B) A2ECs isolated from the lungs of these mice were immunoblotted for above mentioned proteins.
Wild-type (WT) and p53- and PAI-1-deficient mice of C57BL/6 background were bred in the inventor's facilities or were purchased from Jackson Laboratories. These mice were exposed to passive TSE from 40 research cigarettes over a 2 hour period 5 days/week for 20 weeks (^˜90 mg/m3 total solid particulates) by using a mechanical smoking chamber (Teague Enterprises, Davis, CA). Control mice were exposed to ambient air. Four weeks after initiation of passive TSE exposure, the mice were administered an intraperitoneal injection of CSP7 or scrambled control peptide (CP) (18.75 mg/kg body wt) once a week for 4 weeks (Marudamuthu et al. Am J Pathol 185: 55-68, 2015); Tiwari et al., supra). Mice were killed, and their lungs were used for further analyses (Bhandary et al., supra).

human COPD lung tissues = assay: Human COPD lung tissues treated ex vivo for 72 h; assay type: cell-based; conditions: for active caspase-3 in AT2 cells isolated from treated tissue: COPD tissue ex vivo
Procedure: Lung tissues from control subjects and patients with COPD were treated with or without CSP7 for 72 h ex vivo or in vitro. Lung homogenates were analyzed for immunoblot and Real time PCR.
Treatment of human lung tissues with CSP7 ex vivo. For ex vivo studies, de-identified human COPD lung tissues and histologically “normal” lung (nL) tissues were obtained from transplant recipients and from the Gift of Life Donor Program (www.donors1.org) from Temple University, Philadelphia, PA, USA.
Ex vivo studies using human lung tissues without patient identity was approved by the Institutional (UTHSCT) Review Board (IRB) through exempt protocol #12-003. nL and COPD tissues (n=4-5) were treated with or without CSP7 for 72 h ex vivo as described previously (Marudamuthu et al, 2019). Total protein and RNA extracted from the lung tissues were analyzed by Western blotting and qPCR for MUC5AC protein and mRNA, respectively. In separate experiments, AT2 cells isolated from nL and COPD lungs were treated with CSP7 or CP and immunoblotted for changes in senescence or apoptosis, p53, PAI-1 and SP-C expression. Similarly, nL and COPD tissues were treated with or without CSP7 or CP for 72 h ex vivo and AT2 cells isolated from these tissues were analyzed for senescence or apoptosis, p53, PAI-1 and SP-C.

[1] = system: A2Cs of WT mice exposed to tobacco smoke; assay: Chronic passive tobacco smoke (20 weeks) lung injury in WT mice, A2C telomere analyses; assay type: in vivo, mouse; conditions: 20 weeks smoke
Procedure: Relative telomere length was also analyzed by qPCR analysis of the genomic DNA as described by Callicott R J et al., (Comp Med 2006; 56:17-22) and Cawthon RM (Nucleic Acids Res 2002; 30:e47-e47). The […] gene was served as the control.
To test the effect of chronic TS exposure induced lung injury, these mice were exposed to passive TS from 40 research cigarettes over a 4 h period 5 days/week for 20 weeks (˜90 mg/m3 total solid particulates) using a mechanical smoking chamber (Teague Enterprises, Davis, CA) as described earlier. (Bhandary et al, 2015). Control mice were kept in ambient air. After sixteen weeks of daily passive TS exposure, mice with TS exposure injury were treated with CSP7 at a dosage of 1.5 mg/kg body weight daily 5 days/week for the next four weeks. These mice were continued with daily exposure of 4 h of TS during CSP7 treatment. At the end of the experiment (after 20 weeks of TS exposure), the mice were euthanized, and lungs were utilized for further analyses. To expand the local delivery options of CSP7 to directly treat the damaged lung by air-jet milling for dry powder inhalation (DPI). Mice exposed to TSE were treated with CSP7 using a rotating brush generator for 15 min daily for 7 days. Fourteen days later, […] were subjected to daily inhalation of micronized CSP7 (0.05 mg/kg/d) DP through air-jet-milling for seven consecutive days using a rotating brush exposure system. The rotating brush exposure system gave a consistent minimal chamber concentration of 0.1 mg/L. In order to match dosing of DP inhalation, animal exposure times were adjusted to approximately 15 minutes and an estimated dose of 0.05 mg/kg/d or 1.00 microgram/lung was administered. […]
Measurement of terminal restriction fragment (telomeric) length. For the determination of telomeric length, the TeloTTAGGG Telomere Length Assay Kit (Roche Diagnostics GmbH) was used. Briefly, genomic DNA was isolated and digested with Hinf1/Rsa. The digested DNA fragments were then separated by electrophoresis on agarose gel followed by Southern blot transfer. The membrane was then hybridized with a telomere specific digoxigenin (DIG)-labelled probe, incubated with anti-DIG alkaline phosphatase, and documented with chemiluminescence detection in gel-doc unit (Bio-Rad Laboratories). Telomeric length was identified by comparing with the pre-labelled molecular weight marker. The relative telomere length was calculated according to the protocol provided. In addition, relative telomere length was analyzed by qPCR analysis of the genomic DNA. (Cawthon, Nucleic Acids Res 2002, 30:e47-e47; Alder et al, Proc Natl Acad Sci USA 2015, 112:5099-5104.) The 36B4 gene was served as the control.

| Substance | p53, PAI-1 expression and apoptosis in A2Cs/A2ECs (WT mice exposed to PTS) | pulmonary influx of CD4- and CD8-positive T cells, macrophages and neutrophils (WT mice exposed to PTS) | lung volume (micro-CT) (WT mice exposed to PTS; WT mice, 20 weeks PTS) | Cav1 expression in A2ECs (WT mice exposed to PTS; WT mice, PTS) | PTS-induced IL-17A (and IL-17R) in the lungs (WT mice exposed to PTS; WT mice, PTS) | acetylated p53, serine-15 phosphorylated p53, total p53 and Sirt1 in A2ECs (WT mice exposed to PTS; WT mice, PTS) | miR-34a expression in A2ECs (WT mice exposed to PTS; WT mice, PTS) | MUC5AC, HDAC6, SPDEF, Ac-Tubulin, FOXA2 and other MCM markers (Western blot) (human COPD lung tissues; COPD tissue, 10 μM, 72 h) | SIAH-1 expression in A2Cs [1] | active caspase-3 in AT2 cells isolated from treated tissue (human COPD lung tissues) | MUC5AC, HDAC6, FOXA3, CAV1 and FOXA2 mRNA (human COPD lung tissues; COPD tissue, 10 μM, 72 h) | also measured |
| --- | --- | --- | --- | --- | --- | --- | --- | --- | --- | --- | --- | --- |
| DGIWKASFTTFTVTKYWFYR (listed as Homo sapiens) [CSP, 20 residue caveolin-1 scaffolding domain peptide] | mitigates A2EC apoptosis | inhibits pulmonary influx of CD4- and CD8-positive T cells, macrophages and neutrophils | significantly reduced; also recorded: reduced lung volumes | without affecting Cav1 expression; also recorded: without inhibiting PTS-induced Cav1 | inhibits PTS-induced accumulation of IL-17A in the lungs; also recorded: significantly inhibited PTS-induced IL-17A and IL-17R levels | blocked ^p15Sp53; also recorded: inhibits acetylation; also recorded: restoration of Sirt1; also recorded: reduced p53^AC, p53^S15 and total p53 levels, and restored baseline Sirt1 expression | suppression of miR-34a expression; also recorded: significantly inhibited | reverse | – | – | – | lung inflammation, pulmonary PMN accumulation (MPO) (WT mice exposed to PTS; WT mice, 20 weeks PTS): significantly suppresses lung inflammation; Cav1 binding with PP2Ac in A2ECs (WT mice exposed to PTS; WT mice, PTS): inhibited the PTS-induced binding of Cav1 with PP2Ac |
| FTTFTVT (listed as Homo sapiens) [CSP7, heptapeptide fragment of the caveolin-1 scaffolding domain peptide CSP] | inhibited PTS or IL-17A exposure induced p53 | inhibits pulmonary influx of CD4- and CD8-positive T cells, macrophages and neutrophils; also recorded: reversed | significantly reduced; also recorded: reduced lung volumes | without inhibiting PTS-induced Cav1 | inhibits PTS-induced accumulation of IL-17A in the lungs | reduced p53^AC, p53^S15 and total p53 levels, and restored baseline Sirt1 expression | reduced miR-34a | reverse; also recorded: reduced MUC5AC and other MCM markers | Downregulation of SIAH-1 was significantly more; also recorded: markedly downregulated | reduced active caspase-3 | parallel inhibition of MUC5AC, HDAC6, FOXA3 and CAV1 mRNA with an increase in FOXA2 mRNA | IHC of lung sections for TRF2, p53, PAI-1, TRF1 [1]: restoration of TRF2 expression with reduction in p53 and PAI-1 expression; TRF2 and TERT expression in A2Cs [1]: restoration of TRF2 and TERT expression; p53, cleaved caspase-3 and β-galactosidase expression in A2Cs (Western blot) [1]: significant decrease; also recorded: markedly suppressed; TERT enzyme activity (TRAPeze assay) ([1]; vs CP group): significantly higher; relative telomere length of A2Cs (qPCR), telomere shortening ([1]; vs control peptide CP): significant resistance in telomere shortening; PAI-1, p53^AC, p53^S15, cleaved Caspase-3 and beta-galactosidase in lung sections and A2ECs (WT mice exposed to PTS; WT mice, 20 weeks PTS): markedly reduced; p53 and PAI-1 in BAL fluids and lung homogenates (WT mice exposed to PTS; injected 4 weeks after initiation of TSE, 20 weeks): significantly suppressed the expression of p53 and PAI-1; PP2A and CIP2A mRNA (human COPD lung tissues; COPD tissue): significantly reversed; baseline CAV1, p53 and PAI-1 (human COPD lung tissues; COPD tissue, 10 μM, 72 h): suppression of baseline CAV1, p53, and PAI-1; p53 and SP-C in AT2 cells isolated from treated tissue (human COPD lung tissues; COPD tissue, 72 h ex vivo): reduction in p53 while restoring baseline SP-C expression; effect in nL tissues (human COPD lung tissues; normal lung tissue ex vivo): minimal effect |
| WGIDKAFFTTSTVTYKWFRY [CP, scrambled control peptide with the same amino acid composition as CSP, reference compound] | – | – | – | – | – | still showed elevated p53^AC, p53^S15, total p53 and PAI-1 | – | – | still showed elevated p53 and SIAH-1 | otherwise increased | failed to respond | – |
